Results: ChEMBL document CHEMBL1142763, “Dibenzodioxocinones--a new class of CETP inhibitors” (Bioorg Med Chem Lett, 2005)

Key:
[1] = target: T1, Cholesteryl ester transfer protein (Homo sapiens, UniProt P11597); assay: Inhibitory concentration against Cholesterol ester transfer protein (CETP) in CETP fluorescence assay
T1 sequence (P11597 whole entry): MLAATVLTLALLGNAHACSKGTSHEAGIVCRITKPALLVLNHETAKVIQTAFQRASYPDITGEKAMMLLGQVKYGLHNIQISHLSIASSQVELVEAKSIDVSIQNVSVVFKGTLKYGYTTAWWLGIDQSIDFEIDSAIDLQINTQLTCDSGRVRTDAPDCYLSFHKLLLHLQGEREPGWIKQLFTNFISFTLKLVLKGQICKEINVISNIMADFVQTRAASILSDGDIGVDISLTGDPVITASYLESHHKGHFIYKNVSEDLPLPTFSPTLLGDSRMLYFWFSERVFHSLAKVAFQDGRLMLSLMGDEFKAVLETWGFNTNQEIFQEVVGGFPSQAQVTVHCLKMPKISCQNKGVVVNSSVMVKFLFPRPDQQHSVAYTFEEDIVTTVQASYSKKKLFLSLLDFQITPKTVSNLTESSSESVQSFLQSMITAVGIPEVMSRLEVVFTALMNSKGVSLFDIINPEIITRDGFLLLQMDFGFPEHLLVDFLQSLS

[2] = (§1) Half life period […] determined in rat plasma; type: ADME, cell-free
[3] = as §1; type: ADME, organism-based

Row | Compound | IC50 [1] [nM] | half-life [2] [h] | half-life [3] [h]
1 | CCc1c(C)c(Cl)c2c(c1OC(=O)C1(C)C3CCC1CC3)Oc1ccc([C@@H](O)CC(C)(C)C)c(OC)c1C(=O)O2 (some centres not stated) | 15 |  | 
2 | COc1c([C@@H](O)CC(C)C)ccc2c1C(=O)Oc1c(Cl)c(C)c(C)c(OC(=O)C3(C)C4CCC3CC4)c1O2 (some centres not stated) | 30 | > 3 | 
3 | COc1c([C@@H](O)CC(C)C)ccc2c1C(=O)Oc1cc(C)cc(OC(=O)N3CCCC3)c1O2 | 800 |  | 2.9
4 | COc1c([C@@H](O)CC(C)(C)C)ccc2c1C(=O)Oc1c(Cl)c(C)c(Br)c(OC(=O)C3(C)C4CCC3CC4)c1O2 (some centres not stated) | 32 |  | 
5 | COc1c([C@@H](O)CC(C)C)ccc2c1C(=O)Oc1cc(C)cc(O)c1O2 | > 20000 |  | 
6 | COc1c([C@@H](O)CC(C)C)ccc2c1C(=O)Oc1cc(C)cc(OC(=O)N3CC4CCC4C3)c1O2 (some centres not stated) | 400 |  | 
7 | COc1c(C(O)C(C)C)ccc2c1C(=O)Oc1cc(C)cc(OCCC(C)C)c1O2 (racemic) | 4000 |  | 
8 | COc1c([C@@H](O)CC(C)C)ccc2c1C(=O)Oc1c(Cl)c(C)c(Br)c(OC(=O)C3(C)C4CCC3CC4)c1O2 (some centres not stated) | 60 | > 3 | 
9 | COc1c(C(O)CC2CCCCC2)ccc2c1C(=O)Oc1cc(C)cc(OCCC(C)C)c1O2 (racemic) | > 20000 |  | 
10 | COc1c([C@@H](O)CC(C)(C)C)ccc2c1C(=O)Oc1c(Cl)c(C)c(C)c(OC(=O)C3(C)C4CCC3CC4)c1O2 (some centres not stated) | 30 |  | 
11 | COc1c([C@@H](O)CC(C)C)ccc2c1C(=O)Oc1cc(C)cc(OC(=O)[N+]34CCC(CC3)C4)c1O2 | 200 |  | 3.9
12 | COc1c(C(O)CCC(C)C)ccc2c1C(=O)Oc1cc(C)cc(OCCC(C)C)c1O2 (racemic) | > 20000 |  | 
13 | COc1c(C(O)CC(C)(C)C)ccc2c1C(=O)Oc1cc(C)cc(OCCC(C)C)c1O2 (racemic) | 1500 |  | 
14 | COc1c([C@@H](O)CC(C)C)ccc2c1C(=O)Oc1cc(C)cc(OC(=O)N(C(C)C)C(C)C)c1O2 | 700 |  | > 5
15 | CCN(CC)C(=O)Oc1cc(C)cc2c1Oc1ccc([C@@H](O)CC(C)C)c(OC)c1C(=O)O2 | 3000 |  | 

Second part, led by results:

Row | IC50 [1] [nM] | half-life [2] [h] | Compound | half-life [3] [h]
16 | 10000 |  | COc1c(C(O)CC2CC2)ccc2c1C(=O)Oc1cc(C)cc(OCCC(C)C)c1O2 (racemic) | 
17 | 13000 |  | COc1c([C@@H](O)CC(C)C)ccc2c1C(=O)Oc1cc(C)cc(OCc3ccccc3)c1O2 | 
18 | 200 | < 0.1 | COc1c([C@@H](O)CC(C)C)ccc2c1C(=O)Oc1cc(C)cc(OC(=O)C3CC4C=CC3C4)c1O2 (some centres not stated) | 
19 | 4000 |  | CCCCCS(=O)(=O)Oc1cc(C)cc2c1Oc1ccc([C@@H](O)CC(C)C)c(OC)c1C(=O)O2 | 
20 | 6000 |  | COc1c([C@@H](O)CC(C)C)ccc2c1C(=O)Oc1cc(C)cc(OS(=O)(=O)c3c(F)cc(F)cc3F)c1O2 | 
21 | 200 | 4.2 | COc1c([C@@H](O)CC(C)C)ccc2c1C(=O)Oc1cc(C)cc(OC(=O)C3(C)C4CCC3CC4)c1O2 (some centres not stated) | 
22 | 800 |  | COc1c([C@@H](O)CC(C)C)ccc2c1C(=O)Oc1cc(C)cc(OC(=O)C(C)(C)C)c1O2 | < 0.1
23 | 600 |  | COc1c([C@@H](O)CC(C)C)ccc2c1C(=O)Oc1cc(C)cc(OC(=O)C3CCCC3)c1O2 | 
24 | 1500 |  | COc1c([C@@H](O)CC(C)C)ccc2c1C(=O)Oc1cc(C)cc(OCC3CCCC3)c1O2 | 
25 | 10000 |  | COc1c([C@@H](O)CC(C)C)ccc2c1C(=O)Oc1cc(C)cc(OS(=O)(=O)C(F)(F)F)c1O2 | 
26 | 2000 |  | COc1c(C(O)CC(C)C)ccc2c1C(=O)Oc1cc(C)cc(OCCC(C)C)c1O2 (racemic) | 
27 | 200 | 0.64 | COc1c([C@@H](O)CC(C)C)ccc2c1C(=O)Oc1cc(C)cc(OC(=O)C3(C)CC4C=CC3C4)c1O2 (some centres not stated) | 
28 | 700 |  | COc1c([C@@H](O)CC(C)C)ccc2c1C(=O)Oc1cc(C)cc(OS(=O)(=O)C(C)C)c1O2 | 
